Measurements published in patent EP0754034B1, “EFFERVESCENT PHARMACEUTICAL FORMULATIONS CONTAINING CONTROLLED RELEASE BIODEGRADABLE MICROCAPSULES” (ELAN CORPORATION, Plc, priority 1994, dated 1995).
≈ marks a conversion by molar mass, not a printed value. Read-outs that look alike come from different tables or passages of the source.

Experiments:
[1] = Saturated solubility (Cs) measured to establish sink conditions; format: physicochemical
Protocol: Prior to carrying out in vitro release studies, the saturated solubility of diltiazem HCI was measured in order to establish sink conditions.
Prior to carrying out in vitro release studies, the saturated solubility of diltiazem base was measured in order to establish sink conditions. […] The microsphere systems studied had diltiazem base starting loadings of 10% w/w, 20% w/w, 30% w/w, and 50% w/w, D 50% of […], respectively, and were prepared by Method A using the Ultra Turrax.

[2] = cited from earlier work

Compound | solubility ([1]; pH 1.2, simulated gastric fluid, thermodynamic from solid) [mg/mL] | solubility ([1]; pH 7.4, aqueous buffer, thermodynamic from solid) [mg/mL] | pKa [2] | solubility ([1]; aqueous buffer, thermodynamic from solid, phosphate buffer pH 7.4, read-out: Cs (saturated solubility)) [mg/mL] | solubility ([1]; pH 1.2, read-out: Cs (saturated solubility)) [mg/mL]
COc1ccc([C@@H]2Sc3ccccc3N(CCN(C)C)C(=O)[C@@H]2OC(C)=O)cc1 [Diltiazem base] | 227 (≈ 549 mM) | 1.06 (≈ 2.56 mM) | around 8 | – | –
COc1ccc([C@@H]2Sc3ccccc3N(CCN(C)C)C(=O)[C@@H]2OC(C)=O)cc1 [Diltiazem HCI] | – | – | – | 2.39 (≈ 5.77 mM) | > 1000
